In PubChem BioAssay AID492982 (Sanford-Burnham Center for Chemical Genomics, 2010):
The source made the active and inactive calls.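 Rule for the calls: active = mean EC50 below 10 µM; inactive = the rest.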

biological target: Type-1 angiotensin II receptor (Homo sapiens) (UniProt P30556); experiment: AGTR1 activation selectivity check – cell-based, CHO-K1 PathHunter, luminescence, set 3, selectivity assay for APJ agonist project, SAR follow-up (AID 492982); conditions: CHO-K1 AGTR1 PathHunter beta-arrestin, 90 min
Sequence (P30556 whole entry, looked up): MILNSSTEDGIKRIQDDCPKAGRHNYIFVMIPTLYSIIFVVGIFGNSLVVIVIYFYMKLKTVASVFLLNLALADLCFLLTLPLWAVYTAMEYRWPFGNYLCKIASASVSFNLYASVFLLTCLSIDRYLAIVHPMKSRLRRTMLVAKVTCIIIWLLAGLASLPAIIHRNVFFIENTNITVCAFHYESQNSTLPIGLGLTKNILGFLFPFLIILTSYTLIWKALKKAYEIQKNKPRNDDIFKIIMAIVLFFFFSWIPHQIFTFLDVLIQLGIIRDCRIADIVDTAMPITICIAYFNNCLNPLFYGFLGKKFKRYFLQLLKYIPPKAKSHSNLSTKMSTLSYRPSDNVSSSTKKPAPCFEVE

Row | EC50 | SMILES
1 | > 79 µM (inactive) | CC1=CC(=O)C(C(C)C)=C/C1=N/OS(=O)(=O)c1ccc(C(C)C)cc1
2 | > 79 µM (inactive) | CC1=CC(=O)C(C(C)C)=C/C1=N/OS(=O)(=O)c1ccc(F)cc1
3 | > 79 µM (inactive) | CC1=CC(=O)C(C(C)C)=C/C1=N/OS(=O)(=O)c1ccc(C#N)cc1
